“Also recorded” adds a separate entry of the source.
How the values were obtained:
[1] = tested on: MDA-MB-231 human breast cancer cells; experiment: Boyden chamber assay (CytoSelect 96-well cell migration); assay type: cell-based; details: 100 nM, 37 °C, n = 3; for Anti-migration activity, P152 vs scrambled peptides: t-test, comparison with scrambled P152-1 and P152-2 (Figure 5); for Migration of MDA-MB-231 cells vs non-treatment: 24 h (1 h pre-incubation), 5% CO2, CyQuant GR fluorescence, t-test p < 0.05
Method: A Boyden chamber assay was performed using the CytoSelect™ 96-well cell migration assay kit (8 µm, Fluorometric Format, Cat. No. CBA-106; Cell Biolabs, Inc., San Diego, CA, USA). Human breast cancer MDA-MB-231 cells (HTB-26TM; American Type Culture Collection, Manassas, VA, USA) were suspended in serum-free D-MEM medium (1.85 × 10^5 cells/mL) containing 100 nM CD81-BP, AAAA or CD81 antibody (5A6) at 37 °C and 5% CO2 for 1 h. Then, within the Boyden chamber, 100 µL of the serum-free cell suspension was added to the upper chamber, while 150 µL of 10% FBS-containing medium was placed in the lower chamber. After incubation at 37 °C and 5% CO2 for 24 h, the cells that migrated to the lower chamber were detached from the membrane by cell detachment buffer, lysed by lysis buffer, and stained with CyQuant® GR dye. The fluorescence intensity of the cell lysate was analyzed at 480/520 nm by a microplate reader (Biomedical Solutions, Inc., Stafford, TX, USA).
The experiment was performed with at least three replicates. The t-test was performed using Prism 9 (GraphPad Software, Inc., La Jolla, CA, USA) or Microsoft Excel (Microsoft, WA, USA) to analyze the statistical significance difference. The statistical significance was set at p-value < 0.05.

[2] = tested on: Recombinant CD81 human protein (LEL Phe113-Lys201); experiment: Binding assay between EWI-2 peptide array and Alexa Fluor 488-labeled CD81 (screening); details: 500 nM labeled CD81, room temperature, 3 h, 3% BSA block; blank-subtracted; fluorescence scan; n = 3
Method: The peptide array was prepared similarly to the method described in previous reports. A peptide library of eight-residue peptides was obtained by overlapping four residues from Ig3 to the C-terminus of human EWI-2 (accession number: Q969P0) (Table S1). Next, the EWI-2 peptide array was synthesized on a Fmoc-β-Alanine-activated cellulose membrane using Fmoc-based chemistry. The synthesis cycle was initiated by deprotecting the N-terminal Fmoc group with 20% piperidine in DMF and then washing it with DMF and EtOH, respectively. […]
The Alexa Fluor™ 488 protein labeling kit (Thermo Fisher Scientific, Waltham, MA, USA) was applied to fluorescently label the CD81 protein. […] The concentration of the labeled CD81 protein solution was finally quantified using a Bradford protein assay kit (Takara Bio Inc., Shiga, Japan).
First, to reduce nonspecific interactions, the peptide array was blocked by 3% BSA in Tris–HCl buffer at room temperature for 15 min, followed by membrane washing with Tris–HCl buffer. […] Finally, the membrane was fluorescence-scanned and imaged by a biomolecular imager (Typhoon FLA 9500; GE Healthcare, Hatfield, UK), before the spot intensity of each peptide was measured using GE Healthcare’s ImageQuant TL 8.1 software.

[3] = target: T1, Recombinant CD81 human protein, large extracellular loop (LEL, Phe113-Lys201), Alexa Fluor 488-labeled (human, UniProt P60033 113-201, Alexa Fluor 488 dye (succinimidyl ester labeling)); experiment: peptide or protein array; candidate peptides and control AAAA on cellulose membrane, blocked with 3% BSA; Alexa488-labeled CD81 at 50 nM to 1 µM, room temperature, 3 h; AAAA-subtracted spot intensity fitted to the Hill equation; estimated KD; details: both partners purified
T1 construct: two additional amino acids (Gly and Pro) at the N-terminus of the LEL; CD81, human, large extracellular loop (LEL), Phe113-Lys201; also called CD81 protein; CD81 LEL; source: bought: Sino Biological (Cat. No. 14244-HNCH); labeled with the Alexa Fluor 488 protein labeling kit
T1 sequence: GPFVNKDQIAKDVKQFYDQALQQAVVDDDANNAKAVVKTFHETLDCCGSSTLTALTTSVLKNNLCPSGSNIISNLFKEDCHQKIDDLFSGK

**Q.** How did the “Anti-migration activity, P152 vs scrambled peptides” value ([1]; 24 h) turn out when “FRKCKMRL [Peptide P152-1, scrambled peptide of P152 (FRKCKMRL)]” was run?
**A.** showed the impact on MDA-MB-23 cell migration as seemingly as the original P152; also recorded: only P152 origin showed statistical significance (p-value < 0.05)

**Q.** ASRTYRLR [Peptide P97] was tested. Which “Migration of MDA-MB-231 cells vs non-treatment” value [1] did it give?
**A.** no distinct inhibition was observed

**Q.** What about the “Spot fluorescence intensity on array (candidate selection)” value [2] of the same molecule?
**A.** greater than the average (AVG) and two standard deviations (SD)

**Q.** “KKRCRFLM [Peptide P152-2, scrambled peptide of P152 (KKRCRFLM)]” was tested. Which “Anti-migration activity, P152 vs scrambled peptides” value ([1]; 24 h) did it give?
**A.** only P152 origin showed statistical significance (p-value < 0.05)

**Q.** How did the “Migration of MDA-MB-231 cells vs non-treatment” value [1] turn out when “FMKRLRKR [Peptide P153, EWI-2-derived CD81-BP candidate, FMKRLRKR]” was run?
**A.** could significantly reduce the migration of MDA-MB-231 cells

**Q.** What about the “Inhibition of migration compared with anti-human CD81 antibody 5A6” value ([1]; 24 h) of the same molecule?
**A.** comparable or competitive to an anti-CD81 monoclonal human antibody (5A6)

**Q.** What about the “Spot fluorescence intensity on array (candidate selection)” value [2] of the same molecule?
**A.** greater than the average (AVG) and two standard deviations (SD)

B1: P153 (FMKRLRKR), EWI-2-derived eight-residue peptide (peptide)
peptide: FMKRLRKR
modifications: synthesized on a Fmoc-β-Alanine-activated cellulose membrane
notes: last eight residues of human EWI-2 (immunoglobulin superfamily member 8); also called CD81-BP candidate; source: synthetic peptide, spot-synthesized on cellulose membrane (peptide array)
**Q.** With B1 as the molecule, how does the Kd [3] read?
**A.** 12.6 µM

B2: P152 (CFMKRLRK), EWI-2-derived eight-residue peptide (peptide)
peptide: CFMKRLRK
modifications: synthesized on a Fmoc-β-Alanine-activated cellulose membrane
notes: eight-residue stretch of human EWI-2 (immunoglobulin superfamily member 8), near the C-terminus; For the migration assay the peptide was made as a free powder on Rink amide resin; also called CD81-BP candidate; source: synthetic peptide, spot-synthesized on cellulose membrane (peptide array)
**Q.** How did the Kd [3] turn out when B2 was run?
**A.** 0.91 µM

B3: P132 (RSHRLRLH), EWI-2-derived eight-residue peptide (peptide)
peptide: RSHRLRLH
modifications: synthesized on a Fmoc-β-Alanine-activated cellulose membrane
notes: eight-residue stretch of human EWI-2 (immunoglobulin superfamily member 8), between the Ig3 domain and the C-terminus; also called CD81-BP candidate; source: synthetic peptide, spot-synthesized on cellulose membrane (peptide array)
**Q.** For B3, which Kd [3] is on record?
**A.** 1.63 µM

B4: P97 (ASRTYRLR), EWI-2-derived eight-residue peptide (peptide)
peptide: ASRTYRLR
modifications: synthesized on a Fmoc-β-Alanine-activated cellulose membrane
notes: eight-residue stretch of human EWI-2 (immunoglobulin superfamily member 8), between the Ig3 domain and the C-terminus; For the migration assay the peptide was made as a free powder on Rink amide resin; also called CD81-BP candidate; source: synthetic peptide, spot-synthesized on cellulose membrane (peptide array)
**Q.** How did the Kd [3] turn out when B4 was run?
**A.** 1.06 µM

From PMC10046862, “Screening of EWI-2-Derived Peptides for Targeting Tetraspanin CD81 and Their Effect on Cancer Cell Migration” (Biomolecules, 2023)
